This is an account of results in patent publication US8071612B2, “6-alkenyl and 6-phenylalkyl substituted 2-quinolinones and 2-quinoxalinones as poly(ADP-ribose) polymerase inhibitors” (Janssen Pharmaceutica, NV, priority 2004, dated 2011).

Assay [1] deals with T1, PARP-1 enzyme (Homo sapiens, UniProt P09874).
T1 construct: made in house
Put plainly: In vitro Scintillation Proximity Assay (SPA) for PARP-1 inhibitory activity. The settings on record: nicked DNA activated PARP-1, [3H]-NAD+, biotinylated histones; read-out: In vitro SPA pIC50 (converted). The format is biochemical. The protocol:
Compounds of the present invention were tested in an in vitro assay based on SPA technology (proprietary to Amersham Pharmacia Biotech).
In principle, the assay relies upon the well established SPA technology for the detection of poly(ADP-ribosyl)ation of biotinylated target proteins, i.e histones. This ribosylation is induced using nicked DNA activated PARP-1 enzyme and [^3H]-nicotinamide adenine dinucleotide ([^3H]-NAD^+) as ADP-ribosyl donor.
As inducer of PARP-1 enzyme activity, nicked DNA was prepared. For this, 25 mg of DNA (supplier: Sigma) was dissolved in 25 ml DNAse buffer (10 mM Tris-HCl, pH 7.4; 0.5 mg/ml Bovine Serum Albumine (BSA); 5 mM MgCl2.6H2O and 1 mM KCl) to which 50 μl DNAse solution (1 mg/ml in 0.15 M NaCl) was added. After an incubation of 90 min. at 37° C., the reaction was terminated by adding 1.45 g NaCl, followed by a further incubation at 58° C. for 15 min. The reaction mixture was cooled on ice and dialysed at 4° C. for respectively 1.5 and 2 hours against 1.5 l of 0.2 M KCl, and twice against 1.5 l of 0.01 M KCl for 1.5 and 2 h respectively. The mixture was aliquoted and stored at −20° C. Histones (1 mg/ml, type II-A, supplier: Sigma) were biotinylated using the biotinylation kit of Amersham and stored aliquoted at −20° C. A stock solution of 100 mg/ml SPA poly(vinyl toluene) (PVT) beads (supplier: Amersham) was made in PBS. A stock solution of [^3]H-NAD^+ was made by adding 120 μl of [^3H]-NAD^+ (0.1 mCi/ml, supplier: NEN) to 6 ml incubation buffer (50 mM Tris/HCl, pH 8; 0.2 mM DTT; 4 mM MgCl2). A solution of 4 mM NAD^+ (supplier: Roche) was made in incubation buffer (from a 100 mM stock solution in water stored at −20° C.). The PARP-1 enzyme was produced using art known techniques, i.e. cloning and expression of the protein starting from human liver cDNA. Information concerning the used protein sequence of the PARP-1 enzyme including literature references can be found in the Swiss-Prot database under primary accession number P09874. Biotinylated histones and PVT-SPA beads were mixed and pre-incubated for 30 min. at room temperature. PARP-1 enzyme (concentration was lot dependent) was mixed with the nicked DNA and the mixture was pre-incubated for 30 min. at 4° C. Equal parts of this histones/PVT-SPA beads solution and PARP-1 enzyme/DNA solution were mixed and 75 μl of this mixture together with 1 μl of compound in DMSO and 25 μl of [^3H]-NAD^+ was added per well into a 96-well microtiterplate. The final concentrations in the incubation mixture were 2 μg/ml for the biotinylated histones, 2 mg/ml for the PVT-SPA beads, 2 μg/ml for the nicked DNA and between 5-10 μg/ml for the PARP-1 enzyme. After incubation of the mixture for 15 min. at room temperature, the reaction was terminated by adding 100 μl of 4 mM NAD^+ in incubation buffer (final concentration 2 mM) and plates were mixed.
The beads were allowed to sediment for at least 15 min. and plates transferred to a TopCountNXT™ (Packard) for scintillation counting, values were expressed as counts per minute (cpm). For each experiment, controls (containing PARP-1 enzyme and DMSO without compound), a blank incubation (containing DMSO but no PARP-1 enzyme or compound) and samples (containing PARP-1 enzyme and compound dissolved in DMSO) were run in parallel. All compounds tested were dissolved and eventually further diluted in DMSO. In first instance, compounds were tested at a concentration of 10^−5 M or 10^−6M. […] In each test, the blank value was subtracted from both the control and the sample values. The control sample represented maximal PARP-1 enzyme activity. For each sample, the amount of cpm was expressed as a percentage of the mean cpm value of the controls. When appropriate, IC50-values (concentration of the drug, needed to reduce the PARP-1 enzyme activity to 50% of the control) were computed using linear interpolation between the experimental points just above and below the 50% level. […]

Assay [2] concerns the target T1, PARP-1 enzyme. The experiment in a line: In vitro filtration assay for PARP-1 inhibitory activity. To be noted: nicked DNA activated PARP-1, [32P]-NAD, histones; read-out: In vitro filtration assay pIC50 (converted). It counts as biochemical. The protocol: Compounds of the present invention were tested in an in vitro filtration assay assessing PARP-1 activity (triggered in the presence of nicked DNA) by means of its histone poly (ADP-ribosyl)ation activity using [^32P]-NAD as ADP-ribosyl donor. The radioactive ribosylated histones were precipitated by trichloroacetic acid (TCA) in 96-well filterplates and the incorporated [^32P] measured using a scintillation counter
A mixture of histones (stock solution: 5 mg/ml in H2O), NAD (stock solution: 100 mM in H2O), and [^32P]-NAD^+ in incubation buffer (50 mM Tris/HCl, pH 8; 0.2 mM DTT; 4 mM MgCl2) was made. A mixture of the PARP-1 enzyme (5-10 μg/ml) and nicked DNA was also made. The nicked DNA was prepared as described in the in vitro SPA for PARP-1 inhibitory activity. Seventy-five μl of the PARP-1 enzyme/DNA mixture together with 1 μl of compound in DMSO and 25 μl of histones-NAD^+/[^32P]-NAD^+ mixture was added per well of a 96-well filterplate (0.45 μm, supplier Millipore). The final concentrations in the incubation mixture were 2 μg/ml for the histones, 0.1 mM for the NAD^+, […] (0.5 μC) for the [^32P]-NAD^+ and 2 μg/ml for the nicked DNA. Plates were incubated for 15 min. at room temperature and the reaction was terminated by the addition of 10 μl ice cold 100% TCA followed by the addition of 10 μl ice-cold BSA solution (1% in H2O). The protein fraction was allowed to precipitate for 10 min. at 4° C. and plates were vacuum filtered. The plates were subsequently washed with, for each well, 1 ml of 10% ice cold TCA, 1 ml of 5% ice cold TCA and 1 ml of 5% TCA at room temperature. Finally 100 μl of scintillation solution (Microscint 40, Packard) was added to each well and the plates were transferred to a TopCountNXT™ (supplier: Packard) for scintillation counting and values were expressed as counts per minute (cpm). For each experiment, controls (containing PARP-1 enzyme and DMSO without compound), a blank incubation (containing DMSO but no PARP-1 enzyme or compound) and samples (containing PARP-1 enzyme and compound dissolved in DMSO) were run in parallel. All compounds tested were dissolved and eventually further diluted in DMSO. In first instance, compounds were tested at a concentration of 10^−5M. […] In each test, the blank value was subtracted from both the control and the sample values. The control sample represented maximal PARP-1 enzyme activity. For each sample, the amount of cpm was expressed as a percentage of the mean cpm value of the controls. When appropriate, IC50-values (concentration of the drug, needed to reduce the PARP-1 enzyme activity to 50% of the control) were computed using linear interpolation between the experimental points just above and below the 50% level. Herein the effects of test compounds are expressed as pIC50 (the negative log value of the IC50-value). As a reference compound, 4-amino-1,8-naphthalimide was included to validate the filtration assay.

T1 sequence (P09874 whole entry): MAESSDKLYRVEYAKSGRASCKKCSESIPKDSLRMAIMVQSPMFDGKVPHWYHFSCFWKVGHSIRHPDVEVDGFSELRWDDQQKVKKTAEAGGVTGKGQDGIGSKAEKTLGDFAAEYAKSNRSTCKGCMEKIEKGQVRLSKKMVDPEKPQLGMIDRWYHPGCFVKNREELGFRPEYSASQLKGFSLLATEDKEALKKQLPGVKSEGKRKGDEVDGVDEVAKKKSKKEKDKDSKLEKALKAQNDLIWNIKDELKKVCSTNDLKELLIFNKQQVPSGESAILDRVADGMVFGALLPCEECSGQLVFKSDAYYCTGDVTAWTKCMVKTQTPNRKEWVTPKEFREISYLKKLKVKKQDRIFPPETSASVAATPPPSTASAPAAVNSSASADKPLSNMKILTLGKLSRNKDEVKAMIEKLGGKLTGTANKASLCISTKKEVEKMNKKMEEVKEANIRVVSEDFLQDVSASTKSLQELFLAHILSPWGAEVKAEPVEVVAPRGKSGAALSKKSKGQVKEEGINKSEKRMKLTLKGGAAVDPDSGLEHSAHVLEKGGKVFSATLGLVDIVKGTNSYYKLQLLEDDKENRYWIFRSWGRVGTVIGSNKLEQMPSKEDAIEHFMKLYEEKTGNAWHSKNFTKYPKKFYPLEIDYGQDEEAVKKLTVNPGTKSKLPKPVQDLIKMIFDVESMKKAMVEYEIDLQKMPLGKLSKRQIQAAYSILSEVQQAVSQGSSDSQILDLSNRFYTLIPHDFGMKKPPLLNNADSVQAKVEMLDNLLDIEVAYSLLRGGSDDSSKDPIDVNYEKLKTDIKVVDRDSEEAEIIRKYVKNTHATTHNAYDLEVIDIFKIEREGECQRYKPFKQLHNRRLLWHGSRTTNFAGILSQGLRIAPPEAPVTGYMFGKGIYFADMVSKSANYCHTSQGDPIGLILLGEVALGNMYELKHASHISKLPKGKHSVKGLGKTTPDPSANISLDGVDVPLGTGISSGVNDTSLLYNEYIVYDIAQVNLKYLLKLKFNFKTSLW

As to `Cc1cc2cc(C(NC(=O)NCCCN3CCCCC3)c3ccccc3)ccc2[nH]c1=O` (stereo not shown) [Compound 7], the IC50 was 1430 nM on PARP-1 enzyme [1] and 7330 nM on PARP-1 enzyme [2]. For the compound `Cc1cc2cc(C(c3ccccc3)c3cncn3C)ccc2[nH]c1=O` (stereo not shown) [Compound 10], the values for the IC50 at PARP-1 enzyme [1] and on PARP-1 enzyme [2] were 711 nM and 2390 nM, respectively. The matching figures for `CCc1cc2cc(C(c3ccccc3)N3CCC(NCCOC)CC3)ccc2[nH]c1=O` (stereo not shown) [Compound 13]: 220 nM and 2110 nM.

As for `Cc1cc2cc(C(NCCCc3cccs3)c3ccccc3)ccc2[nH]c1=O` (stereo not shown) [Compound 23], the results for the IC50 at PARP-1 enzyme [1] and at PARP-1 enzyme [2] were 1410 nM and 3270 nM, respectively. The matching figures for `Cc1cc2cc(C(NCCCn3cccc3)c3ccccc3)ccc2[nH]c1=O` (stereo not shown) [Compound 24]: 2720 nM and 7590 nM.

In the case of `CC(=O)NCCNC(c1ccccc1)c1ccc2[nH]c(=O)c(C)cc2c1` (stereo not shown) [Compound 25], the IC50 at PARP-1 enzyme [1] was 498 nM; at PARP-1 enzyme [2], 3900 nM. For `CCc1cc2cc(C(NCCCN3CCCCC3)c3ccccc3)ccc2[nH]c1=O` (stereo not shown) [Compound 26], the IC50 on PARP-1 enzyme [1] was 119 nM; on PARP-1 enzyme [2], 918 nM. The matching figures for `Cc1cc2cc(C(NCCC(=O)c3ccccc3)c3ccccc3)ccc2[nH]c1=O` (stereo not shown) [Compound 27]: 925 nM and 2330 nM. Regarding `CCc1cc2cc(C(OCCN(C)C)c3ccccc3)ccc2[nH]c1=O` (stereo not shown) [Compound 28], the IC50 at PARP-1 enzyme [1] was 226 nM; at PARP-1 enzyme [2], 773 nM.

For the compound `Cc1cc2cc(C(NCCO)c3ccccc3)ccc2[nH]c1=O` (stereo not shown) [Compound 29], the IC50 at PARP-1 enzyme [1] was 796 nM; on PARP-1 enzyme [2], 4780 nM. The matching figures for `CCc1nc2cc(C(c3ccccc3)n3cncn3)ccc2[nH]c1=O` (stereo not shown) [Compound 30]: 362 nM and 1800 nM. The matching figures for `CCc1cc2cc(C(c3cccc(C(F)(F)F)c3)N3CCC(=O)CC3)ccc2[nH]c1=O` (stereo not shown) [Compound 37]: 302 nM and 1170 nM. In the case of `CCc1cc2cc(C(c3ccc(Cl)cc3)N3CCC(=O)CC3)ccc2[nH]c1=O` (stereo not shown) [Compound 38], the IC50 at PARP-1 enzyme [1] is 316 nM; on PARP-1 enzyme [2], 2650 nM.

Turning to `CCc1cc2cc(C(c3ccccc3)N3CCN(C)CC3)ccc2[nH]c1=O` (stereo not shown) [Compound 39], the IC50 at PARP-1 enzyme [1] was 596 nM; at PARP-1 enzyme [2], 10000 nM. The matching figures for `CCc1cc2cc(C(c3cccc(C(F)(F)F)c3)n3cnnc3)ccc2[nH]c1=O` (stereo not shown) [Compound 72]: 211 nM and 2100 nM.

For the compound `CCc1cc2cc(C(c3cccc(Cl)c3)N3CCC(=O)CC3)ccc2[nH]c1=O` (stereo not shown) [Compound 77], the IC50 on PARP-1 enzyme [1] was 252 nM; on PARP-1 enzyme [2], 1740 nM. With `CCc1cc2cc(C(c3cccc(C(F)(F)F)c3)n3cncn3)ccc2[nH]c1=O` (stereo not shown) [Compound 78], the IC50 at PARP-1 enzyme [1] was 197 nM; at PARP-1 enzyme [2] it was 2370 nM.

Consider `CCc1cc2cc(C(c3cccc(C(F)(F)F)c3)N3CCN(C)CC3)ccc2[nH]c1=O` (stereo not shown) [Compound 80], for which the IC50 was 692 nM on PARP-1 enzyme [1] and 3910 nM at PARP-1 enzyme [2]. The matching figures for `CCc1cc2cc(C(c3ccccc3)N3CCC(=O)CC3)ccc2[nH]c1=O` (stereo not shown) [Compound 81]: 305 nM and 3970 nM. The matching figures for `Cc1cc2cc(C(C)(C#N)c3ccccc3)ccc2[nH]c1=O` (stereo not shown) [Compound 85]: 189 nM and 1190 nM. With `CCc1nc2cc(CCC(c3ccc(Cl)cc3)n3ccnc3)ccc2[nH]c1=O` (stereo not shown) [Compound 118], the IC50 on PARP-1 enzyme [1] is 869 nM. Still for that read-out and setting: as for `CCc1nc2cc(CC(c3ccccc3)n3ccnc3)ccc2[nH]c1=O` (stereo not shown) [Compound 119], the figure is 198 nM. The same measure, in the same setting: as for `CCc1nc2ccc(CC(c3ccc(Cl)cc3)N3CCC(C(N)=O)CC3)cc2[nH]c1=O` (stereo not shown) [Compound 120], the figure is 553 nM; as for `CCc1nc2cc(CC(c3ccc(Cl)cc3)N3CCC(O)(c4ccccc4)CC3)ccc2[nH]c1=O` (stereo not shown) [Compound 121], 830 nM.

Turning to `CCc1cc2cc(/C(=C/CN3CCCCC3)c3ccc4c(c3)OCCO4)ccc2[nH]c1=O` [Compound 129], the IC50 at PARP-1 enzyme [1] is 57.1 nM. On to `CCc1cc2cc(/C(=C\CN3CCCCC3)c3ccc4c(c3)OCCO4)ccc2[nH]c1=O` [Compound 130], for which, on PARP-1 enzyme [1], the IC50 was 188 nM.

On to `CCc1cc2cc(/C(=C\CN(C)C)c3ccc4c(c3)OCCO4)ccc2[nH]c1=O` [Compound 136], for which the IC50 at PARP-1 enzyme [1] was 137 nM. Consider `CCc1cc2cc(/C(=C\CN(C)C)c3ccc(Cl)cc3)ccc2[nH]c1=O` [Compound 137], for which, at PARP-1 enzyme [1], the IC50 was 428 nM. On the same count and under the same terms, the same measure for `CCc1cc2cc(/C(=C/CN(C)C)c3ccc4c(c3)OCCO4)ccc2[nH]c1=O` [Compound 138]: 63 nM; for `CCc1cc2cc(C(=C3CCN(CCCn4c(=O)[nH]c5ccccc54)CC3)c3ccc4c(c3)OCCO4)ccc2[nH]c1=O` [Compound 141]: 121 nM.

In the case of `CCc1cc2cc(C(=C3CCN(C/C=C/c4ccccc4)CC3)c3ccc4c(c3)OCCO4)ccc2[nH]c1=O` [Compound 142], on PARP-1 enzyme [1], the IC50 was 322 nM. On the same count and under the same terms, as for `CCc1cc2cc(C(=C3CCN(CC(O)COc4ccc(F)cc4)CC3)c3ccc4c(c3)OCCO4)ccc2[nH]c1=O` (stereo not shown) [Compound 143], the figure is 157 nM.
